Patent US20230044268A1, “AN IMPROVED PROCESS FOR PREPARATION OF LIRAGLUTIDE” (SHILPA MEDICARE LIMITED, priority 2019, published 2023)

Assay: storage stability of liraglutide obtained by the present process
Format: physicochemical
Conditions: storage of the isolated product; conditions not given
Source text: The present invention also relates to a process for the preparation of liraglutide, which is substantially pure having a purity of greater or equal to 99.5% and meeting the ICH guidelines. Further, the liraglutide obtained as per the present process is found devoid of any other process related impurities and is adequately stable to handle and store for longer time (at least up to more than 6 months) without any significant or measurable change in its morphology and physicochemical characteristics.

- stable to handle and store without any significant or measurable change in morphology and physicochemical characteristics: more than 6 months
Substance: Liraglutide
